In the supplement of paper PMC10307832:

The cell lines below were run with Cc1ccc(NC(=O)c2ccc(CN3CCN(C)CC3)cc2)cc1Nc1nc(-c2cccnc2)cs1 [Masitinib] + NC(=O)Nc1cc(-c2cccc(F)c2)sc1C(=O)N[C@H]1CCCNC1 [AZD7762] (partner 0.2 µM) (assay: relative viability (nuclei count vs DMSO), 5 days (fraction); higher = more cells survive). Settings: first compound 1 µM.
Method in brief: (§1)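 Each reported value is a median over duplicate plates. It expresses relative viability: treated-well nuclei count divided by vehicle-well nuclei count. Lung cancer cell lines in 1536-well plates were dosed by pin tool a day after seeding, alone with one drug or with a fixed anchor-drug dose plus five library-drug doses (not always all listed) in √10 steps, and nuclei were counted after 5 days.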
NCI-H1755 gave a relative viability of 0.479.
NCI-H2405 gave a relative viability of 0.634.

The cell lines below were run with CC1=CC(=CC=C1)NC2=NC(=CS2)C3=CC=NC=C3 + O=C(c1cc(Cc2n[nH]c(=O)c3ccccc23)ccc1F)N1CCN(C(=O)C2CC2)CC1 [Olaparib] (partner 8 µM) in the same assay as above. Settings: first compound 0.08 µM.
Method in brief: as §1
NCI-H838 was tested, and the relative viability was 0.567.
NCI-H1651 gave a relative viability of 0.185.
NCI-H1734 was tested, and the relative viability was 0.552.
Work on LU99A yielded a relative viability of 0.233.
With PC-14 the relative viability was 0.298.
With LCLC-103H the relative viability was 0.631.
NCI-H596 was tested, and the relative viability was 0.674.
With EMC-BAC-2 the relative viability was 0.424.
NCI-H2087 showed a relative viability of 0.596.
Cell Line HCC-366 has a relative viability of 0.352.
NCI-H647 showed a relative viability of 0.477.
LK-2 was tested, and the relative viability was 0.665.
NCI-H2126 showed a relative viability of 0.894.
With NCI-H1793 the relative viability was 0.889.
Work on H3255 yielded a relative viability of 0.542.
LOU-NH91 was tested, and the relative viability was 0.8.
ChaGo-K-1 gave a relative viability of 0.407.
Cell Line NCI-H358 has a relative viability of 0.547.
With NCI-H3122 the relative viability was 0.578.
HOP-62 showed a relative viability of 0.445.
For HCC-44, the relative viability was 0.952.
LXF-289 gave a relative viability of 1.02.
BEN gave a relative viability of 0.928.
HARA gave a relative viability of 0.936.
NCI-H1648 gave a relative viability of 0.545.
Cell Line HCC-78 has a relative viability of 0.713.
For NCI-H441, the relative viability was 0.564.
LCLC-97TM1 showed a relative viability of 0.419.
In the case of A-427, the relative viability is reported as 0.456.
In the case of NCI-H460, the relative viability is reported as 0.368.
With NCI-H727 the relative viability was 0.67.
With NCI-H1755 the relative viability was 0.796.
For NCI-H2405, the relative viability was 0.751.

Same assay, conditions: first compound 0.253 µM
Cell Line NCI-H838 has a relative viability of 0.545.
Cell Line NCI-H1651 has a relative viability of 0.179.
NCI-H1734 was tested, and the relative viability was 0.584.
Work on LU99A yielded a relative viability of 0.262.
In the case of PC-14, the relative viability is reported as 0.289.
LCLC-103H gave a relative viability of 0.725.
In the case of NCI-H596, the relative viability is reported as 0.546.
With NCI-H2087 the relative viability was 0.503.
For HCC-366, the relative viability was 0.331.
NCI-H647 was tested, and the relative viability was 0.528.
For LK-2, the relative viability was 0.762.
Cell Line NCI-H2126 has a relative viability of 0.898.
NCI-H1793 showed a relative viability of 0.647.
Work on H3255 yielded a relative viability of 0.569.
Cell Line LOU-NH91 has a relative viability of 0.862.
ChaGo-K-1 showed a relative viability of 0.389.
NCI-H358 showed a relative viability of 0.519.
Cell Line NCI-H3122 has a relative viability of 0.591.
HOP-62 was tested, and the relative viability was 0.5.
For HCC-44, the relative viability was 0.791.
Work on LXF-289 yielded a relative viability of 0.994.
Work on BEN yielded a relative viability of 1.15.
HARA gave a relative viability of 0.701.
NCI-H1648 showed a relative viability of 0.412.
Cell Line HCC-78 has a relative viability of 0.791.
Cell Line NCI-H441 has a relative viability of 0.52.
LCLC-97TM1 gave a relative viability of 0.304.
A-427 was tested, and the relative viability was 0.576.
NCI-H460 gave a relative viability of 0.344.
NCI-H1755 gave a relative viability of 0.829.
NCI-H2405 gave a relative viability of 0.75.

Same assay, conditions: first compound 0.8 µM
With NCI-H838 the relative viability was 0.714.
Work on NCI-H1651 yielded a relative viability of 0.166.
With NCI-H1734 the relative viability was 0.57.
LU99A was tested, and the relative viability was 0.275.
Work on PC-14 yielded a relative viability of 0.289.
With LCLC-103H the relative viability was 0.704.
In the case of NCI-H596, the relative viability is reported as 0.673.
In the case of EMC-BAC-2, the relative viability is reported as 0.384.
Cell Line NCI-H2087 has a relative viability of 0.607.
HCC-366 was tested, and the relative viability was 0.261.
NCI-H647 was tested, and the relative viability was 0.55.
Work on LK-2 yielded a relative viability of 0.903.
Cell Line NCI-H2126 has a relative viability of 0.869.
Work on NCI-H1793 yielded a relative viability of 0.799.
H3255 gave a relative viability of 0.562.
LOU-NH91 showed a relative viability of 0.889.
In the case of ChaGo-K-1, the relative viability is reported as 0.424.
In the case of NCI-H358, the relative viability is reported as 0.521.
Cell Line NCI-H3122 has a relative viability of 0.548.
Work on HOP-62 yielded a relative viability of 0.471.
HCC-44 showed a relative viability of 0.764.
LXF-289 gave a relative viability of 1.04.
Work on BEN yielded a relative viability of 1.1.
HARA showed a relative viability of 0.524.
In the case of NCI-H1648, the relative viability is reported as 0.656.
HCC-78 was tested, and the relative viability was 0.842.
NCI-H441 showed a relative viability of 0.571.
LCLC-97TM1 was tested, and the relative viability was 0.343.
A-427 gave a relative viability of 0.565.
For NCI-H460, the relative viability was 0.355.
For NCI-H727, the relative viability was 0.679.
NCI-H1755 showed a relative viability of 0.769.
NCI-H2405 showed a relative viability of 0.677.

Same assay, conditions: first compound 2.53 µM
For NCI-H838, the relative viability was 0.685.
With NCI-H1651 the relative viability was 0.177.
Cell Line NCI-H1734 has a relative viability of 0.63.
LU99A was tested, and the relative viability was 0.27.
Cell Line PC-14 has a relative viability of 0.238.
For LCLC-103H, the relative viability was 0.748.
NCI-H596 showed a relative viability of 0.6.
Work on EMC-BAC-2 yielded a relative viability of 0.366.
NCI-H2087 showed a relative viability of 0.448.
HCC-366 showed a relative viability of 0.286.
Cell Line NCI-H647 has a relative viability of 0.523.
LK-2 was tested, and the relative viability was 0.824.
NCI-H2126 gave a relative viability of 0.88.
In the case of NCI-H1793, the relative viability is reported as 0.68.
With H3255 the relative viability was 0.533.
Work on LOU-NH91 yielded a relative viability of 0.887.
ChaGo-K-1 gave a relative viability of 0.418.
NCI-H358 showed a relative viability of 0.5.
In the case of NCI-H3122, the relative viability is reported as 0.587.
For HOP-62, the relative viability was 0.48.
In the case of HCC-44, the relative viability is reported as 0.668.
LXF-289 gave a relative viability of 1.05.
BEN showed a relative viability of 0.975.
Work on HARA yielded a relative viability of 0.445.
Cell Line NCI-H1648 has a relative viability of 0.477.
For HCC-78, the relative viability was 0.685.
NCI-H441 gave a relative viability of 0.688.
For LCLC-97TM1, the relative viability was 0.411.
In the case of A-427, the relative viability is reported as 0.683.
With NCI-H460 the relative viability was 0.278.
With NCI-H1755 the relative viability was 0.598.

Same assay, conditions: first compound 8 µM
NCI-H838 showed a relative viability of 0.521.
NCI-H1651 gave a relative viability of 0.186.
With NCI-H1734 the relative viability was 0.539.
For LU99A, the relative viability was 0.237.
PC-14 gave a relative viability of 0.162.
LCLC-103H gave a relative viability of 0.546.
Cell Line NCI-H596 has a relative viability of 0.613.
EMC-BAC-2 was tested, and the relative viability was 0.326.
NCI-H2087 was tested, and the relative viability was 0.462.
Cell Line HCC-366 has a relative viability of 0.21.
In the case of NCI-H647, the relative viability is reported as 0.305.
With LK-2 the relative viability was 1.09.
NCI-H2126 gave a relative viability of 0.887.
With NCI-H1793 the relative viability was 0.81.
In the case of H3255, the relative viability is reported as 0.475.
For LOU-NH91, the relative viability was 0.855.
For ChaGo-K-1, the relative viability was 0.351.
Work on NCI-H358 yielded a relative viability of 0.521.
In the case of NCI-H3122, the relative viability is reported as 0.457.
For HOP-62, the relative viability was 0.512.
HCC-44 gave a relative viability of 0.646.
LXF-289 showed a relative viability of 0.927.
BEN gave a relative viability of 1.09.
HARA was tested, and the relative viability was 0.839.
Cell Line NCI-H1648 has a relative viability of 0.392.
For HCC-78, the relative viability was 0.674.
NCI-H441 was tested, and the relative viability was 0.521.
Cell Line LCLC-97TM1 has a relative viability of 0.379.
For A-427, the relative viability was 0.615.
Work on NCI-H460 yielded a relative viability of 0.263.
